Results as given in PubChem BioAssay AID342 (DTP/NCI, 2004).
Values joined by “and” are separate entries in the source; they are usually repeats but may differ in a detail not shown here. Equal values may be shown once.

System: Swiss mice, Sarcoma 180 sc, mean tumor weight T/C
Assay: NCI In Vivo Anticancer Drug Screen. Data for tumor model Sarcoma 180 (subcutaneous) in Swiss mice
Conditions: endpoint: mean tumor weight, higher = larger tumour
Procedure, shortened: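 Readout is the ratio of treated-group measurement to vehicle-control measurement (T/C), based on survival or tumor size in mice carrying transplanted tumors.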

[1] = dose: 4.0 mg/kg/injection, schedule: Q01DX007 (ip), vehicle: carboxymethylcellulose (CMC)

C[C@@H]1C[C@H]2CC[C@H](O2)[C@H](C)C(=O)O[C@@H](C)C[C@@H]2CC[C@@H](O2)[C@@H](C)C(=O)O[C@H](C)C[C@H]2CC[C@H](O2)[C@H](C)C(=O)O[C@@H](C)C[C@@H]2CC[C@@H](O2)[C@@H](C)C(=O)O1
T/C (dose: 1.25 mg/kg/injection, schedule: Q#A X014 (ip), vehicle: olive oil, sesame oil, peanut oil): 96 % of control
T/C (dose: 2.5 mg/kg/injection, schedule: Q#A X014 (ip), vehicle: olive oil, sesame oil, peanut oil): 88 % of control
T/C (dose: 5.0 mg/kg/injection, schedule: Q#A X014 (ip), vehicle: olive oil, sesame oil, peanut oil): 90 % of control
T/C (dose: 5.0 mg/kg/injection, schedule: Q#A X014 (sc), vehicle: olive oil, sesame oil, peanut oil): 82 % of control
T/C (dose: 9.0 mg/kg/injection, schedule: Q#A X014 (ip), vehicle: carboxymethylcellulose (CMC)): 89 % of control
T/C (dose: 10.0 mg/kg/injection, schedule: Q#A X014 (ip), vehicle: olive oil, sesame oil, peanut oil): 73 % of control and 83 % of control
T/C (dose: 10.0 mg/kg/injection, schedule: Q#A X014 (sc), vehicle: olive oil, sesame oil, peanut oil): 81 % of control
T/C (dose: 15.0 mg/kg/injection, schedule: Q#A X014 (sc), vehicle: olive oil, sesame oil, peanut oil): 80 % of control
T/C (dose: 18.0 mg/kg/injection, schedule: Q#A X014 (ip), vehicle: carboxymethylcellulose (CMC)): 111 % of control
T/C (dose: 20.0 mg/kg/injection, schedule: Q#A X014 (ip), vehicle: carboxymethylcellulose (CMC)): 57 % of control
T/C (dose: 25.0 mg/kg/injection, schedule: Q#A X014 (ip), vehicle: carboxymethylcellulose (CMC)): 53 % of control
T/C (dose: 25.0 mg/kg/injection, schedule: Q#A X014 (oral), vehicle: methylcellulose (MC)): 77 % of control
T/C (dose: 30.0 mg/kg/injection, schedule: Q#A X014 (ip), vehicle: carboxymethylcellulose (CMC)): 89 % of control
T/C (dose: 30.0 mg/kg/injection, schedule: Q#A X014 (sc), vehicle: olive oil, sesame oil, peanut oil): 50 % of control
T/C (dose: 35.0 mg/kg/injection, schedule: Q#A X014 (ip), vehicle: carboxymethylcellulose (CMC)): 60 % of control
T/C (dose: 35.0 mg/kg/injection, schedule: Q#A X014 (sc), vehicle: olive oil, sesame oil, peanut oil): 26 % of control
T/C (dose: 40.0 mg/kg/injection, schedule: Q#A X014 (ip), vehicle: carboxymethylcellulose (CMC)): 64 % of control
T/C (dose: 40.0 mg/kg/injection, schedule: Q#A X014 (sc), vehicle: olive oil, sesame oil, peanut oil): 32 % of control
T/C (dose: 50.0 mg/kg/injection, schedule: Q#A X014 (oral), vehicle: methylcellulose (MC)): 114 % of control
T/C (dose: 50.0 mg/kg/injection, schedule: Q#A X014 (sc), vehicle: olive oil, sesame oil, peanut oil): 26 % of control
T/C (dose: 54.0 mg/kg/injection, schedule: Q01DX007 (sc), vehicle: methylcellulose (MC)): 106 % of control
T/C (dose: 80.0 mg/kg/injection, schedule: Q01DX007 (sc), vehicle: methylcellulose (MC)): 77 % of control
T/C (dose: 100.0 mg/kg/injection, schedule: Q#A X014 (oral), vehicle: methylcellulose (MC)): 93 % of control
T/C (dose: 108.0 mg/kg/injection, schedule: Q03DX003 (sc), vehicle: methylcellulose (MC)): 71 % of control
T/C (dose: 120.0 mg/kg/injection, schedule: Q01DX007 (sc), vehicle: methylcellulose (MC)): 101 % of control
T/C (dose: 162.0 mg/kg/injection, schedule: Q03DX003 (sc), vehicle: methylcellulose (MC)): 115 % of control
T/C (dose: 180.0 mg/kg/injection, schedule: Q01DX007 (sc), vehicle: methylcellulose (MC)): 100 % of control
T/C (dose: 200.0 mg/kg/injection, schedule: Q#A X014 (oral), vehicle: methylcellulose (MC)): 95 % of control
T/C (dose: 240.0 mg/kg/injection, schedule: Q03DX003 (sc), vehicle: methylcellulose (MC)): 109 % of control
T/C (dose: 360.0 mg/kg/injection, schedule: Q03DX003 (sc), vehicle: methylcellulose (MC)): 102 % of control
T/C (dose: 540.0 mg/kg/injection, schedule: Q03DX003 (sc), vehicle: methylcellulose (MC)): 152 % of control

C[C@]12CC[C@@H]3c4ccc(O)cc4CC[C@H]3[C@@H]1C[C@H](O)C2
T/C (dose: 0.25 mg/kg/injection, schedule: Q#A X014 (sc), vehicle: steriod suspending solution): 120 % of control
T/C (dose: 0.5 mg/kg/injection, schedule: Q01DX007 (sc), vehicle: steriod suspending solution): 110 % of control
T/C (dose: 1.25 mg/kg/injection, schedule: Q01DX007 (sc), vehicle: steriod suspending solution): 60 % of control
T/C (dose: 1.25 mg/kg/injection, schedule: Q#A X014 (sc), vehicle: steriod suspending solution): 99 % of control
T/C (dose: 2.5 mg/kg/injection, schedule: Q#A X014 (sc), vehicle: steriod suspending solution): 58 % of control
T/C (dose: 10.0 mg/kg/injection, schedule: Q#A X014 (sc), vehicle: steriod suspending solution): 73 % of control

O=NN(CCCl)C(=O)NCCCl
T/C (dose: 1.5 mg/kg/injection, schedule: Q01DX007 (ip), vehicle: saline): 27 % of control
T/C (dose: 2.6 mg/kg/injection, schedule: Q01DX007 (ip), vehicle: saline): 79 % of control
T/C (dose: 3.0 mg/kg/injection, schedule: Q01DX007 (ip), vehicle: saline): 44 % of control
T/C (dose: 3.0 mg/kg/injection, schedule: Q01DX007 (oral), vehicle: carboxymethylcellulose (CMC)): 60 % of control
T/C [1]: 75 % of control
T/C (dose: 4.3 mg/kg/injection, schedule: Q01DX007 (ip), vehicle: saline): 90 % of control
T/C (dose: 6.0 mg/kg/injection, schedule: Q01DX007 (ip), vehicle: carboxymethylcellulose (CMC)): 46 % of control and 58 % of control
T/C (dose: 6.0 mg/kg/injection, schedule: Q01DX007 (ip), vehicle: saline): 47 % of control
T/C (dose: 6.0 mg/kg/injection, schedule: Q01DX007 (oral), vehicle: carboxymethylcellulose (CMC)): 32 % of control
T/C (dose: 7.2 mg/kg/injection, schedule: Q01DX007 (ip), vehicle: saline): 62 % of control
T/C (dose: 8.0 mg/kg/injection, schedule: Q01DX007 (ip), vehicle: carboxymethylcellulose (CMC)): 35 % of control
T/C (dose: 10.0 mg/kg/injection, schedule: Q01DX007 (ip), vehicle: carboxymethylcellulose (CMC)): 27 % of control
T/C (dose: 12.0 mg/kg/injection, schedule: Q01DX007 (ip), vehicle: carboxymethylcellulose (CMC)): 10 % of control
T/C (dose: 12.0 mg/kg/injection, schedule: Q01DX007 (ip), vehicle: saline): 36 % of control and 44 % of control
T/C (dose: 12.0 mg/kg/injection, schedule: Q01DX007 (oral), vehicle: carboxymethylcellulose (CMC)): 12 % of control
T/C (dose: 20.0 mg/kg/injection, schedule: Q01DX007 (ip), vehicle: saline): 24 % of control
T/C (dose: 24.0 mg/kg/injection, schedule: Q01DX007 (oral), vehicle: carboxymethylcellulose (CMC)): 6 % of control

Nc1nc(=S)c2ncn(C3OC(COC(=O)c4ccc([N+](=O)[O-])cc4)C(OC(=O)c4ccc([N+](=O)[O-])cc4)C3OC(=O)c3ccc([N+](=O)[O-])cc3)c2[nH]1 (centres undefined)
T/C [1]: 77 % of control
T/C (dose: 7.0 mg/kg/injection, schedule: Q01DX007 (ip), vehicle: carboxymethylcellulose (CMC)): 94 % of control
T/C (dose: 15.0 mg/kg/injection, schedule: Q01DX007 (ip), vehicle: carboxymethylcellulose (CMC)): 93 % of control and 110 % of control
T/C (dose: 23.0 mg/kg/injection, schedule: Q01DX007 (ip), vehicle: methylcellulose (MC)): 63 % of control
T/C (dose: 35.0 mg/kg/injection, schedule: Q01DX007 (ip), vehicle: carboxymethylcellulose (CMC)): 37 % of control
T/C (dose: 36.0 mg/kg/injection, schedule: Q01DX007 (ip), vehicle: carboxymethylcellulose (CMC)): 29 % of control and 32 % of control
T/C (dose: 36.0 mg/kg/injection, schedule: Q01DX007 (ip), vehicle: methylcellulose (MC)): 77 % of control
T/C (dose: 53.0 mg/kg/injection, schedule: Q01DX007 (ip), vehicle: carboxymethylcellulose (CMC)): 15 % of control and 30 % of control
T/C (dose: 53.0 mg/kg/injection, schedule: Q01DX007 (ip), vehicle: methylcellulose (MC)): 56 % of control
T/C (dose: 80.0 mg/kg/injection, schedule: Q01DX007 (ip), vehicle: carboxymethylcellulose (CMC)): 16 % of control
T/C (dose: 80.0 mg/kg/injection, schedule: Q01DX007 (ip), vehicle: methylcellulose (MC)): 62 % of control

C[N+]1(CCC[N+]2(C)CC3C4C=CC(CC4)C3C2)CCOCC1 (centres undefined)
T/C (dose: 7.75 mg/kg/injection, schedule: Q01DX007 (ip), vehicle: saline): 62 % of control
T/C (dose: 15.5 mg/kg/injection, schedule: Q01DX007 (ip), vehicle: saline): 52 % of control
T/C (dose: 31.0 mg/kg/injection, schedule: Q01DX007 (ip), vehicle: saline): 86 % of control
T/C (dose: 62.0 mg/kg/injection, schedule: Q01DX007 (ip), vehicle: saline): 45 % of control
